Assay results reported in ChEMBL document CHEMBL3745618, “Identification of Non-nucleoside Human Ribonucleotide Reductase Modulators” (J Med Chem, 2015).
Non-standard residues stand in square brackets, D forms with d. Residues, ends and D or L forms follow the SMILES beside them. Sar = CNCC(=O)O

How the values were obtained:
[1] = tested on: MDA-MB-231; experiment: Potentiation of gemcitabine-induced cytotoxicity against human MDA-MB-231 assessed as effective dose of gemcitabine at 2.5 uM after 72 hrs MTT assay (reference value: 0.92 uM); format: functional
[2] = tested on: MDA-MB-231; experiment: Growth inhibition of human MDA-MB-231 cells assessed as 1-relative growth at 1 uM after 3 days by DNA dye binding assay; format: functional
[3] = Growth inhibition of human HCT116 cells assessed as 1-relative growth at 10 uM after 3 days by DNA dye binding assay; format: functional, HCT-116
[4] = tested on: MDA-MB-231; experiment: Growth inhibition of human MDA-MB-231 cells assessed as 1-relative growth at 10 uM after 3 days by DNA dye binding assay; format: functional
[5] = Growth inhibition of human HCT116 cells assessed as 1-relative growth at 1 uM after 3 days by DNA dye binding assay; format: functional, HCT-116
[6] = biological target: T1, Ribonucleoside-diphosphate reductase large subunit (Homo sapiens, UniProt P23921); experiment: Inhibition of human ribonucleotide reductase M1 subunit expressed in Escherichia coli BL21 (DE3) using 14C-ADP as substrate by liquid scintillation counting analysis
T1 sequence (P23921 whole entry): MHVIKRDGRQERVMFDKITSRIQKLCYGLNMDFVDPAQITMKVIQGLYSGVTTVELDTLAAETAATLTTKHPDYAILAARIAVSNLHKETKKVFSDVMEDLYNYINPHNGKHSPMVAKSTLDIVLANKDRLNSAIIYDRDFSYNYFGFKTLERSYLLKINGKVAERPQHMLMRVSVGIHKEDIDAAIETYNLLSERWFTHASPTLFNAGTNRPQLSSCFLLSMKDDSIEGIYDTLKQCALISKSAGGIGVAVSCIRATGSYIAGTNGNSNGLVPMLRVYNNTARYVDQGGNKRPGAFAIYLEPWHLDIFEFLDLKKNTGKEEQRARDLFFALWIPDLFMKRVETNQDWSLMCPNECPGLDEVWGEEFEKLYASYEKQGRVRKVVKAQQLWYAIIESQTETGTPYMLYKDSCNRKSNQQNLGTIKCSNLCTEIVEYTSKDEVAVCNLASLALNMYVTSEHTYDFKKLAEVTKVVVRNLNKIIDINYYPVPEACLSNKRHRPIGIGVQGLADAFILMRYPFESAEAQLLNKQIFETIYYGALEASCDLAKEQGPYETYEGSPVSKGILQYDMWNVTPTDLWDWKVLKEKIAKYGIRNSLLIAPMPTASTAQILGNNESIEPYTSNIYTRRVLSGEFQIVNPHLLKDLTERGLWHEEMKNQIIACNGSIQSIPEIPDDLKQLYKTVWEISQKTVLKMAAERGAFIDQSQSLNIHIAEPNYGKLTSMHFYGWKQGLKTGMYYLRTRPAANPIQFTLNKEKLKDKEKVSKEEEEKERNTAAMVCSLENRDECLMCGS

Q: What does the source list for `OC(COc1ccc(OCC(O)CN2CCN(C3c4ccccc4-c4ccccc43)CC2)cc1)CN1CCN(C2c3ccccc3-c3ccccc32)CC1` (stereo unspecified)?
A: ED [1]: 0.1 µM; Activity [2]: -0.396; Activity [3]: 0.88; Activity [4]: 0.88

Q: Which Activity [2] does the source give for `CCC(C)(C)c1ccc(OCCCCNC(=O)c2cc(Oc3ccc([N+](=O)[O-])cc3)c3ccccc3c2O)c(C(C)(C)CC)c1` here?
A: Its Activity is 0.038.

Q: And the Activity [5]?
A: The Activity was 0.038.

Q: And the Activity [4]?
A: The Activity was 0.398.

Q: For `CNCC(=O)N[C@@H](CCCNC(=N)N)C(=O)N[C@H](C(=O)N[C@@H](Cc1ccc(O)cc1)C(=O)N[C@H](C(=O)N[C@@H](Cc1cnc[nH]1)C(=O)O)C(C)C)C(C)C` (H-[Sar]RVYVH-OH), which Activity [2] is on record?
A: The Activity was 0.108.

Q: What about the Activity [3] of the same molecule?
A: The Activity was 0.158.

Q: What about the Activity [5] of the same molecule?
A: Its Activity is 0.108.

Q: What about the Activity [4] of the same molecule?
A: The Activity was 0.158.

Q: What does the source list for `CCOC(=O)C(NC(=O)CN[C@H]1CCCc2sccc21)C(=O)OCC`?
A: Activity [2]: -0.199; Activity [4]: 0.531

Q: For `CCCCCCCCCCCCCCCC(=O)N[C@@H](CCCCN)C(=O)N[C@@H](CCCCN)C(=O)OC`, which Activity [2] is on record?
A: The Activity was -0.219.

Q: And the Activity [3]?
A: Its Activity is -0.089.

Q: And the Activity [4]?
A: The Activity was -0.089.

Q: What does the source list for `CC(NCCCCCO)c1cc(OCc2ccccc2)cc(OCc2ccccc2)c1` (stereo unspecified)?
A: Activity [2]: -0.076; Activity [3]: 0.036; Activity [5]: -0.076; Activity [4]: 0.036

Q: What does the source list for `CCCCCCCCCCCCCCNC(=O)[C@@H](N)CCN`?
A: Activity [2]: 0.072; Activity [3]: 0.69; Activity [5]: 0.072; Activity [4]: 0.69

Q: Which Activity [2] does the source give for `CCOC(=O)C[C@@H](CC(=O)NCCN[C@H](C)c1ccc(O)c(C(=O)OC)c1)OC(C)=O` here?
A: The Activity was 0.098.

Q: And the Activity [3]?
A: The Activity was 0.096.

Q: And the Activity [5]?
A: The Activity was 0.098.

Q: And the Activity [4]?
A: Its Activity is 0.096.

Q: Which Activity [2] does the source give for `CCCOc1ccc(C(=O)OCCN(CC)CC)cc1NS(=O)(=O)/C=C/c1ccccc1` here?
A: The Activity was -0.033.

Q: And the Activity [3]?
A: The Activity was 0.043.

Q: And the Activity [5]?
A: Its Activity is -0.033.

Q: What about the Activity [4] of the same molecule?
A: The Activity was 0.043.

Q: Which results are given for `CC(C)(NC(=O)CN1C(=O)c2ccccc2C1=O)C(=O)NCCCC[C@H](NC(=O)CC(O)(C(F)(F)F)C(F)(F)F)C(=O)O`?
A: Activity [2]: 0.057; Activity [5]: 0.057; Activity [4]: 0.608

Q: For `NC(=O)NO` [HYDROXYUREA], which IC50 [6] is on record?
A: The IC50 was 997 µM.
